Experimental data: PMC12811658, “Design, Synthesis, and Structural Evolution of Pseudo‐Natural Product IDO1 Inhibitors and Degraders” (Angewandte Chemie (International Ed. in English), 2025)
Read-outs that look alike come from different tables or passages of the source.

How the values were obtained:
[1] = biological target: T1, recombinant full-length human IDO1 (Homo sapiens, UniProt P14902); assay: Thermal shift assay (nanoDSF); type: binding; details: 50 µM, 3 h at 37 °C
T1 construct: The GST-tag of IDO1 was removed to obtain untagged full-length IDO1l using PreScission protease; GST (N, cleaved yes); made in house; own inference
Protocol: Incubation at 37 °C for 3 h. Representative data for n = 3. c) Time‐course of heme displacement from IDO1 detected by the absorbance at the Soret peak (404 nm) as a function of time. […] All curves were fit using a one‐site model with N = 1 and defined IDO1 concentration. Left plots show baseline corrected data, while right plots show integrated binding isotherms versus iDegs/IDO1 ratio. IDO1 protein (125 µM) was titrated into the stirred sample cell containing iDegs (25 µM, except for iDeg‐8 at 50 µM). Representative data for n = 3, except for iDeg‐9 (n = 2). g)–i) In vivo activity of iDeg‐6. NSG immunodeficient mice were injected with SKOV‐3 cells. Mice were treated with 18 intraperitoneal injections of iDeg‐6 (30 mg kg^−1) or vehicle. The pharmacological treatment was twice daily. Tumor volume was determined weekly by digital caliper. g) SKOV‐3 tumor growth curves in iDeg‐6‐treated mice (n = 12, green lines) or vehicle‐treated mice (n = 13, gray lines). Statistical analysis was performed by two‐way ANOVA: ****p < 0.001. h) Body weight changes during treatment window (mean values ± range). i) Survival data are shown by Kaplan‐Meier survival analysis. Mantel–Haenszel statistical analysis: p < 0.0001). […]
The test compounds or DMSO (vehicle control) were incubated with recombinant full-length human IDO1 (rhIDO1; 10 µM) in 50 mM potassium phosphate buffer (pH 6.5) for 3 h at 37 °C. Following incubation, samples were centrifuged at 5,000 × g for 10 minutes, then the protein-compound solutions were loaded into capillaries, and thermal unfolding was assessed using the Prometheus Panta system (NanoTemper® Technologies, Germany). Fluorescence intensities at 330 nm and 350 nm were recorded at temperature increments of 0.115 °C from 20 °C to 90 °C. Melting temperatures (Tm) were automatically calculated using Prometheus NT.48 analysis software. The resulting thermal denaturation curves, with Tm defined as the temperature at the maximum derivative of the unfolding transition, were visualized and analysed using GraphPad Prism version 9.0 (GraphPad Software, USA).

recombinant human IDO1 = biological target: T2, recombinant human IDO1 (Homo sapiens, UniProt P14902); assay: IDO1 enzymatic assay in vitro; type: biochemical
T2 construct: The GST-tag of IDO1 was removed to obtain untagged full-length IDO1l using PreScission protease; GST (N, cleaved yes); made in house; own inference

[2] = biological target: T3, heme-bound IDO1 (holo-IDO1) (Homo sapiens, UniProt P14902); assay: UV/Vis detection of heme-bound IDO1 (heme displacement); type: binding; details: 50 µM; for heme displacement from holo-IDO1 (in words): 37 °C, 3 h, Soret band 404 nm
T3 construct: The GST-tag of IDO1 was removed to obtain untagged full-length IDO1l using PreScission protease; GST (N, cleaved yes); made in house; own inference
Protocol: (§1) Incubation at 37 °C for 3 h. Representative data for n = 3. c) Time‐course of heme displacement from IDO1 detected by the absorbance at the Soret peak (404 nm) as a function of time. […] All curves were fit using a one‐site model with N = 1 and defined IDO1 concentration. Left plots show baseline corrected data, while right plots show integrated binding isotherms versus iDegs/IDO1 ratio. IDO1 protein (125 µM) was titrated into the stirred sample cell containing iDegs (25 µM, except for iDeg‐8 at 50 µM). Representative data for n = 3, except for iDeg‐9 (n = 2). g)–i) In vivo activity of iDeg‐6. NSG immunodeficient mice were injected with SKOV‐3 cells. Mice were treated with 18 intraperitoneal injections of iDeg‐6 (30 mg kg^−1) or vehicle. The pharmacological treatment was twice daily. Tumor volume was determined weekly by digital caliper. g) SKOV‐3 tumor growth curves in iDeg‐6‐treated mice (n = 12, green lines) or vehicle‐treated mice (n = 13, gray lines). Statistical analysis was performed by two‐way ANOVA: ****p < 0.001. h) Body weight changes during treatment window (mean values ± range). i) Survival data are shown by Kaplan‐Meier survival analysis. Mantel–Haenszel statistical analysis: p < 0.0001).
Representative data of n=3 biological replicates. c, IDO1 was incubated with compounds (50 µM) or DMSO (control). UV/VIS spectra were acquired at five time points to monitor heme loss over time. Data are representative of two replicates.
The test compounds or DMSO (vehicle control) were incubated with recombinant full-length human IDO1 (rhIDO1; 10 µM) in 50 mM potassium phosphate buffer (pH 6.5) for 3 h at 37 °C. Following incubation, samples were centrifuged at 5,000 × g for 10 minutes. UV/Vis absorption spectra were then recorded from 250 nm to 650 nm in 1 nm increments using UV-transparent microplates (UV-STAR®, Greiner Bio-One, Austria) on a Spark® multimode microplate reader (Tecan, Austria). Absorbance values were analyzed at 404 nm (A404), and were plotted using GraphPad Prism version 9.0 (GraphPad Software, USA).

[3] = biological target: T4, IDO1 protein in IFN-γ stimulated HeLa cells (Homo sapiens, UniProt P14902); assay: IDO1 immunostaining (immunofluorescence); type: cell-based; details: 24 h
T4 construct: endogenous in cells; host or cells: HeLa (DSMZ), IFN-γ stimulated
Protocol: Figure 3 Comparison of IDO1 degradation efficiency for selected compounds. a) Detection of IDO1 levels using immunostaining. IFN‐γ stimulated HeLa cells were treated with the compounds for 24 h. IDO1 protein abundance was detected with IDO1 antibody. Data are mean values ± SD, n = 3. b) IDO1 protein levels in BxPC3 cells upon compounds treatment were detected using immunoblotting. BxPC3 cells were treated with IFN‐γ for 24 h prior to washout, followed by addition of compounds. Representative blot and quantified band intensities are shown (mean values ± SD, n = 3). See Figure S11a S12a for the uncropped blots. c) Key functions of hit compounds that influence degradation efficiency. d) Heatmap for IDO degradation efficiency. IDO1 levels were monitored as described in (c). See Table S1 for mean values and Figure S11b for the uncropped blots. e)–g) Dose dependent degradation of IDO1 protein in BxPC3 cells treated with iDeg‐7–9 and detected as described in (c). Representative data of n = 3 except for iDeg‐9 (n = 4). See Figure S12 S13 for the uncropped blots. h) Quantification of IDO1 protein levels from e‐g (mean values ± SD, n = 3 except for iDeg‐9 (n = 4). i) Tabulated inhibition and degradation ability of iDeg‐6–9. ND: not detected. j) Volcano plot of iDeg‐6‐induced changes on the global proteome. SKOV‐3 cells were treated with 10 µM iDeg‐6 or DMSO for 4 h followed by protein extraction, tryptic digest and LC‐MS/MS analysis (n = 4). Plot generated using UMSAP (T 0 = 0.5, S 0 = 0.5).
IFN-γ-stimulated Hela cells (5 ng/mL IFN-γ) were seeded in 96-well plates and incubated for 24 h. Subsequently, IFN-γ was washed out and cells were treated with compounds for additional 24 h. Cells were then washed once with PBS and fixed with 3.7% paraformaldehyde for 10 min at room temperature. Cells were washed three times with ice-cold PBS. […] Images were analyzed by SpectraMax Paradigm microplate reader (Molecular Devices) to extract IDO1 fluorescence intensity as well as the cell count. IDO1 fluorescence intensity was normalized to cell count. […]

[4] = test system: Kyn levels in BxPC3 cells (kynurenine generated by IDO1); assay: Cellular Kyn assay (automated Kyn screening assay); type: cell-based; details: IFN-γ, L-Trp and compounds 48 h, mean ± SD, read-out: IC50 (Kyn assay), reduction of kynurenine levels
[5] = biological target: IDO1 protein levels in BxPC3 cells (Homo sapiens, UniProt P14902); assay: IDO1 immunoblotting (degradation); type: cell-based; parameters: endogenous in cells; host or cells: BxPC3 (DSMZ), IFN-γ stimulated; details: for Max. degradation (%): 24 h incubation, mean ± SD; for IDO1 protein level by immunoblotting (in words): IFN-γ 24 h, washout, compounds 24 h
[6] = biological target: T1, recombinant full-length human IDO1; assay: Isothermal titration calorimetry (ITC); type: binding; details: 25 °C
Protocol: as §1
ITC was performed using the MicroCal PEAQ-ITC system (Malvern) at 25 °C. Recombinant human full-length IDO1 (rhIDO1) was buffer-exchanged into 100 mM phosphate buffer (50 mM KH₂PO₄ and 50 mM K₂HPO₄, pH 6.57) with 1 mM TECP using a 10 K Amicon® Ultra centrifugal filter (Millipore). The buffer exchange was repeated ten times to ensure complete removal of interfering components. The final protein sample was diluted in the same phosphate buffer prior to titration.125 μM protein in 100 mM phosphate buffer was loaded into the syringe, while 25 μM compound (except for iDeg-8, 50 μM) in 100 mM phosphate buffer was loaded to the cell. All samples were adjusted to 25 °C and degassed before loading. Titrations were performed at 25 °C with one injection of 0.4 µL, followed by 18 injections of 2 µL. Experiments were performed with three biological replicates except for iDeg-9 with two biological replicates. Data were analyzed using the MicroCal PEAQ-ITC Analysis software and were plotted using GraphPad Prism 9.0 (GraphPad, USA).

[7] = at 14 µM, pre-incubation 37 °C 45 min, mean ± SD
[8] = pre-incubation 37 °C 45 min, determined if inhibition at 14 µM higher than 50%

T3 sequence (P14902 whole entry): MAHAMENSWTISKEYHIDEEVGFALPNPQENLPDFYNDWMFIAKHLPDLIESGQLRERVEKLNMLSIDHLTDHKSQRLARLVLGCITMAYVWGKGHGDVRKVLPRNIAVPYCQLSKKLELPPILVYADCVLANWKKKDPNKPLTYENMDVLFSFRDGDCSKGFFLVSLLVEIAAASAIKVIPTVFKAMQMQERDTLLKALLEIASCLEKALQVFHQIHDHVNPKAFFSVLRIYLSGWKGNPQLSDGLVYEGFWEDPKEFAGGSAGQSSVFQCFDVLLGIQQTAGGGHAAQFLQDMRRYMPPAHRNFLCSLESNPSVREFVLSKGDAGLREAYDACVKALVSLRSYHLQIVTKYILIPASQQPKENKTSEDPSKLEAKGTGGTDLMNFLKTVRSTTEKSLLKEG
T1 sequence (P14902 whole entry): as above
Chain of IDO1 protein levels in BxPC3 cells (P14902 whole entry): as above
T2 sequence (P14902 whole entry): as above
T4 sequence (P14902 whole entry): as above

shift in IDO1 melting temperature ΔTm / binding in TSA (in words) [1] | inhibition at 14 µM (recombinant human IDO1; [7]) [%] | heme displacement from holo-IDO1 (in words) [2] | IC50 ([4]; Homo sapiens, BXPC-3, 48 h) [nM] | Max. degradation (%) ([5]; 10 nM) | Max. degradation (%) ([5]; 100 nM) | IDO1 protein level by immunoblotting (in words) ([5]; BxPC3 cells) | SMILES | IDO1 activity IC50 [µM] (in vitro assay) (recombinant human IDO1; [8]) | IDO1 staining fluorescence intensity (in words) [3] | other results
identical binding in the TSA assay | < 25 | displaced heme to a similar extent | 120 ± 20 | 20 ± 9 (3) % | 37 ± 14 (3) % | modulate IDO1 abundance | CC(C)(C)c1ccc(S(=O)(=O)N2C[C@H]3C[C@H]4C[C@H](C4(C)C)[C@@]3(COC(=O)Nc3ccc(I)cc3)C2)cc1 [14 (iDeg-2)] | – (Inactive: >75% Kyn level observed up to a concentration of 14 µM and no IC50 value obtained) | reduced the fluorescence intensity of the IDO1 staining | Degradation Efficiency (%) ([5]; 100 nM, BxPC3 cells, heatmap Fig. 3d): 37%
identical binding in the TSA assay | – | displaced heme to a similar extent | – | – | – | did not reduce the IDO1 protein level | CC(C)(C)c1ccc(S(=O)(=O)N2CC[C@@]3(C2)[C@@H]2C[C@H](C[C@H]3OC(=O)Nc3ccc(I)cc3)C2(C)C)cc1 [compound 22, (1R,2S,3R,5R)-1'-((4-(tert-butyl)phenyl)sulfonyl)-6,6-dimethylspiro[bicyclo[3.1.1]heptane-2,3'-pyrrolidin]-3-yl (4-iodophenyl)carbamate] | – (Inactive: >75% Kyn level observed up to a concentration of 14 µM and no IC50 value obtained) | did not induce IDO1 protein degradation | IDO1 activity Inhibition (%) (recombinant human IDO1; [7]): ns (not significant); in vitro IDO1 inhibition (in words) (recombinant human IDO1; up to 14 µM, incubated with IDO1 for 45 min): no activity; IC50 [4]: 490 ± 60 nM
highest ΔT m value | 64 ± 1 | most efficient heme displacement | 5 | 20 ± 9 (9) % | 21 ± 20 (9) % | barely affected the IDO1 level | C#Cc1ccc(NC(=O)OC[C@]23CN(S(=O)(=O)c4ccc(C(C)(C)C(=O)O)cc4C)C[C@H]2C[C@H]2C[C@@H]3C2(C)C)cc1 [102 (iDeg-9), 2-(4-(((3aS,4R,6R,7aS)-3a-((((4-ethynylphenyl)carbamoyl)oxy)methyl)-5,5-dimethyloctahydro-2H-4,6-methanoisoindol-2-yl)sulfonyl)-3-methylphenyl)-2-methylpropanoic acid] | – | – | -TΔS (ITC) [6]: 15.6 kcal/mol; Kd [6]: 215 nM; ΔG (ITC) [6]: -9.1 kcal/mol; ΔH (ITC) [6]: -24.7 ± 0.3 kcal/mol; Kd ([6]; one-site model): 220 ± 20 nM; IC50 (recombinant human IDO1; [8]): 0.089 ± 0.03 µM; time course of heme displacement (in words) ([2]; absorbance at 404 nm over time, compared to iDeg-6 and -8): faster; Dmax at 0.1 µM ([5]; BXPC-3, @100 nM, BxPC3 cells): 21%
